The NIST ThermoML archive (doi:10.1016/j.fluid.2015.07.030)

Experiment: refractive index (other wavelength) (dimensionless); xn = mol fraction of the nth substance listed
Settings: 303.15 K, 95.99 kPa, Liquid, Standard Abbe refractometry

OCCOCCOCCO [triethylene glycol] + O
refractive index
Settings | Wavelength=435.8 nm | Wavelength=486.1 nm | Wavelength=546.1 nm | Wavelength=587.6 nm
x2 = 0 | – | 1.45796 | 1.45455 | 1.45273
x2 = 0.1056 | – | 1.4566 | 1.45317 | 1.45138
x2 = 0.2069 | – | 1.45496 | 1.45155 | 1.44975
x2 = 0.3104 | – | 1.45129 | 1.4479 | 1.44612
x2 = 0.4844 | – | 1.4478 | 1.44445 | 1.44268
x2 = 0.5016 | – | 1.44681 | 1.44347 | 1.4417
x2 = 0.5952 | – | 1.44014 | 1.43687 | 1.43513
x2 = 0.6016 | – | 1.44025 | 1.43697 | 1.43525
x2 = 0.6788 | – | 1.4337 | 1.43047 | 1.42877
x2 = 0.7835 | – | 1.42435 | 1.42118 | 1.41951
x2 = 0.8184 | – | 1.4191 | 1.41598 | 1.41434
x2 = 0.8473 | – | 1.41271 | 1.40964 | –
x2 = 0.8719 | – | 1.40585 | 1.40283 | –
x2 = 0.8926 | – | 1.39821 | 1.39527 | –
x2 = 0.9106 | – | 1.39265 | 1.38973 | –
x2 = 0.9254 | 1.38572 | 1.38237 | 1.37951 | –
x2 = 0.9303 | 1.38707 | 1.38371 | 1.38085 | –
x2 = 0.9391 | 1.38312 | 1.37974 | 1.37691 | –
x2 = 0.951 | 1.37641 | 1.37311 | 1.3703 | –
x2 = 0.9599 | 1.37045 | 1.36721 | 1.36443 | –
x2 = 0.9708 | 1.36235 | 1.3592 | 1.35648 | –
x2 = 0.979 | 1.3573 | 1.35419 | 1.3515 | –
x2 = 0.9867 | 1.35126 | 1.34816 | 1.3455 | –
x2 = 0.9936 | 1.34502 | 1.34197 | 1.33934 | –
